Experiments:
[1] = target: T1, human dopamine D1 receptor (Homo sapiens, UniProt P21728); assay: Dopamine D1 receptor binding; settings: Table 10
T1 construct: purchased BioSignal, Inc. (Montreal, Canada)
Source text: (§1) Other receptors: Cell membranes expressing human dopamine D1, D2, D4 and rat D3 receptors were purchased through BioSignal, Inc. (Montreal, Canada). Binding assays using the histamine H, receptor; dopamine receptors; and α1A, α1B, and α2 adrenergic receptors may be carried out according to the procedures described in U.S. Pat. No. 5,780,485, the disclosure of which is hereby incorporated by reference in its entirety into this application. Binding assays using the dopamine D5 receptor may be carried out according to the procedures described in U.S. Pat. No. 5,882,855, the disclosure of which is hereby incorporated by reference in its entirety into this application. Binding assays for the human α1D adrenergic receptor may be carried out according to the procedures described in U.S. Pat. No. 6,156,518, the disclosure of which is hereby incorporated by reference in its entirety into this application.

human α1B adrenoceptor = target: T2, human α1B adrenoceptor (Homo sapiens, UniProt P35368); assay: α1B adrenergic receptor binding; settings: Table 10
T2 construct: expressed in transfected cells
Source text: as §1

Human 5HT2A receptor = target: T3, Human 5HT2A receptor (Homo sapiens, UniProt P28223); assay: 5HT2A receptor binding ([3H]ketanserin); settings: Table 8
T3 construct: expressed in transfected cells; host or cells: COS-7 cells, transient, vector pCEXV-3
Method: Human 5HT2A Receptor: The coding sequence of the human 5HT2A receptor was obtained from a human brain cortex cDNA library, and cloned into the cloning site of pCEXV-3 eukaryotic expression vector. This construct was transfected into COS-7 cells by the DEAE-dextran method (Cullen, 1987). Cells were harvested after 72 hours and lysed by sonication in 5 mM Tris-HCl, 5 mM EDTA, pH 7.5. The cell lysates were subjected to centrifugation at 1000 rpm for 5 minutes at 4° C., and the supernatant was subjected to centrifugation at 30,000×g for. 20 minutes at 4° C. The pellet was suspended in 50 mM Tris-HCl buffer (pH 7.7 at room temperature) containing 10 mM MgSO4, 0.5 mM EDTA, and 0.1% ascorbate. The affinity of compounds at 5HT2A receptors were determined in equilibrium competition binding assays using [^3H]ketanserin (1 nM). Nonspecific binding was defined by the addition of 10 μM mianserin. The bound radioligand was separated by filtration through GF/B filters using a cell harvester.

[2] = target: human histamine H1 receptor (Homo sapiens, UniProt P35367); assay: Histamine H1 receptor binding; settings: Table 10
Source text: as §1

human α2A adrenoceptor = target: T4, human α2A adrenoceptor (Homo sapiens, UniProt P08913); assay: α2A adrenergic receptor binding; settings: Table 10
T4 construct: expressed in transfected cells
Source text: as §1

[3] = tested on: neuropathic rats (chronic constriction nerve injury); assay: Chronic constriction nerve injury model of neuropathic pain: thermal hyperalgesia (Thermal Plantar Test); assay type: in vivo, rat
Method: The aim of this study was to assess the potential analgesic effects of Example 92 following intraperitoneal administration at the doses of 3, 10 and 30 mg/kg, respectively, in an animal model of neuropathic pain. A peripheral mononeuropathy was induced in the right hind limb of rats following a chronic constriction nerve injury (Bennett and Xie, 1988), and the development of mechanical allodynia and thermal hyperalgesia was monitored using established behavioral tests (Attal, N., et al., 1990; Hargreaves, K., et al., 1988).
Male Sprague-Dawley rats within the weight range of 200-225 g, and approximate age 7-9 weeks, were allowed to acclimate for a minimum of 6 days prior to the start of the behavioral testing.
All rats underwent a chronic constriction nerve injury, and of these, those that successfully developed allodynia and hyperalgesia were allocated to treatment groups.
There were 5 separate treatment groups (with a minimum of 10 rats per group). The treatment groups were as follows: • Group C received Morphine at 10 mg/kg (n=10) • Group D received Vehicle for Example 92* at 1 ml/kg (n=10) (* 100% DMSO) • Group E received Example 92 at 30 mg/kg (n=10) • Group F received Example 92 at 3 mg/kg (n=10) • Group G received Example 92 at 10 mg/kg (n=10)
The dose volume for all treatments was 1 ml/kg. Each rat received a single i.p. dose of the test substance, reference substance or vehicle on Day 12 PO. Test substance and vehicle dosing solutions were encoded (C-G) so that the observers were unaware of the identity of the treatment groups.
The behavioral tests (Von Frey filament and Thermal Plantar Tests—see below) were performed on all rats on 3 separate days prior to […], to establish baseline values. The pre-surgery baseline values were calculated as the mean of the last 2 days testing (the data from the first day of testing were not included as this was classed as part of the acclimating period). The sequence of tests was always mechanical allodynia (Von Frey Test) followed by thermal hyperalgesia (Thermal Plantar Test), with a minimum 5 min period allowed between the 2 tests.
Each rat was placed in a clear plastic chamber with a glass floor and allowed a short period to acclimatize to the new environment (approximately 5 min.). The animals were then challenged with a radiant Infrared (IR) heat source, directed at the plantar surface of the hind paw from below, and the withdrawal latency of both the ipsilateral and contralateral hind paws was evaluated. The infrared intensity was set at IR50 and the maximum length of exposure to the IR source was 18 s. Non-responding animals were allocated a withdrawal latency of 18 s.
The animals were surgically prepared over 5 days. […]

h5HT6 = target: T5, h5HT6 (Homo sapiens, UniProt P50406); assay: 5-HT6 receptor binding; settings: Table 8
T5 construct: expressed in transfected cells
Method: Other 5-HT Receptors: Other serotonin receptor binding assays were performed according to published methods: rat 5HT2C receptor (Julius et al., 1988); and 5-HT6 (Monsma, et al., 1993). The binding assays using the 5-HT4 receptor were performed according to the procedures described in U.S. Pat. No. 5,766,879, the disclosure of which is hereby incorporated by reference in its entirety into this application.

T3 sequence (P28223 whole entry): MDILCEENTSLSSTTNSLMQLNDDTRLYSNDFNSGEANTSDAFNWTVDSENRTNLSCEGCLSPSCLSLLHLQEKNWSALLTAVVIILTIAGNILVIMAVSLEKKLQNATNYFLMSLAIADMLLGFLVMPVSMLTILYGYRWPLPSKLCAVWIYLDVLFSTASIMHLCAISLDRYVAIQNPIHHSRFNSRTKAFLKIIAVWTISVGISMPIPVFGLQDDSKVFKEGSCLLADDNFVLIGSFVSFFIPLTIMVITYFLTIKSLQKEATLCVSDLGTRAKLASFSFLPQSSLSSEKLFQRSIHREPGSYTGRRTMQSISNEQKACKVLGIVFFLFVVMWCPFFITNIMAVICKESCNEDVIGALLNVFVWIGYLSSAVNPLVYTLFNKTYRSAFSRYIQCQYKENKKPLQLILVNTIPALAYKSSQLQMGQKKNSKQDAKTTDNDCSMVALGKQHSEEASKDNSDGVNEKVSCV
T4 sequence (P08913 whole entry): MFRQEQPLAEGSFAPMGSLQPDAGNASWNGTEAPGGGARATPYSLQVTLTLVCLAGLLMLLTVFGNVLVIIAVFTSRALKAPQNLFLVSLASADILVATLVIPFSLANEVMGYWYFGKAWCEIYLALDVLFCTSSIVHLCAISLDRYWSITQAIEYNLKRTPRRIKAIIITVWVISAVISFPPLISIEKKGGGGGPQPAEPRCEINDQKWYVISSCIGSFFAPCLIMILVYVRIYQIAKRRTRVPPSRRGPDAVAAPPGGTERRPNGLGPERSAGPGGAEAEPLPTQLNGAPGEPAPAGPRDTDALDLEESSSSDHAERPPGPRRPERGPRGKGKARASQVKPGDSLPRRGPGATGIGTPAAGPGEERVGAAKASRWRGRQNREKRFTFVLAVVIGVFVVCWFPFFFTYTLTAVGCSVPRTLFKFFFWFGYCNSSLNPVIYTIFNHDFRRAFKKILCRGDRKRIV
T5 sequence (P50406 whole entry): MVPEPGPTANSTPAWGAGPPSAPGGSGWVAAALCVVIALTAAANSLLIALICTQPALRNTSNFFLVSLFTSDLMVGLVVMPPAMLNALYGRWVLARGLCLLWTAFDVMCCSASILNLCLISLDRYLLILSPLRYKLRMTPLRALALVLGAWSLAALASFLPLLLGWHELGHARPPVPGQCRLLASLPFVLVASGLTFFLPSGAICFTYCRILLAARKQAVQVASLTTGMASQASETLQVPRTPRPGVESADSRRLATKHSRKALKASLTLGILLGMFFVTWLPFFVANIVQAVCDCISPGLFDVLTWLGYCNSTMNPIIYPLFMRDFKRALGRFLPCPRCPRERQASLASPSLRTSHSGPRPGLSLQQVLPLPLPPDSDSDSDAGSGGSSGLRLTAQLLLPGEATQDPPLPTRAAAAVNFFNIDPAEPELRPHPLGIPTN
T2 sequence (P35368 whole entry): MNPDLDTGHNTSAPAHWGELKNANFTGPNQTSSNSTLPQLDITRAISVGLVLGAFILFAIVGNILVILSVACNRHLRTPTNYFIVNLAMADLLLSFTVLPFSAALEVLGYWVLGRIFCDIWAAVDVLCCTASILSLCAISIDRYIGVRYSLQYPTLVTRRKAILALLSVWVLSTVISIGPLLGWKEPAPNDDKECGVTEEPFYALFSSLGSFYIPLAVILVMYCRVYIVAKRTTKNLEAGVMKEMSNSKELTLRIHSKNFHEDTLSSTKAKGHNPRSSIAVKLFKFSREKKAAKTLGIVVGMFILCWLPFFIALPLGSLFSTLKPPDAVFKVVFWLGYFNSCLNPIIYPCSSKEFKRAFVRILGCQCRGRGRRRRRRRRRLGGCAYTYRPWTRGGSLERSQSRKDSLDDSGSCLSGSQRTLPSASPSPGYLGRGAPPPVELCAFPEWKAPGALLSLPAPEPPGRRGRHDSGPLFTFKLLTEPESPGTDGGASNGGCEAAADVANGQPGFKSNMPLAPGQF
Chain of human histamine H1 receptor (P35367 whole entry): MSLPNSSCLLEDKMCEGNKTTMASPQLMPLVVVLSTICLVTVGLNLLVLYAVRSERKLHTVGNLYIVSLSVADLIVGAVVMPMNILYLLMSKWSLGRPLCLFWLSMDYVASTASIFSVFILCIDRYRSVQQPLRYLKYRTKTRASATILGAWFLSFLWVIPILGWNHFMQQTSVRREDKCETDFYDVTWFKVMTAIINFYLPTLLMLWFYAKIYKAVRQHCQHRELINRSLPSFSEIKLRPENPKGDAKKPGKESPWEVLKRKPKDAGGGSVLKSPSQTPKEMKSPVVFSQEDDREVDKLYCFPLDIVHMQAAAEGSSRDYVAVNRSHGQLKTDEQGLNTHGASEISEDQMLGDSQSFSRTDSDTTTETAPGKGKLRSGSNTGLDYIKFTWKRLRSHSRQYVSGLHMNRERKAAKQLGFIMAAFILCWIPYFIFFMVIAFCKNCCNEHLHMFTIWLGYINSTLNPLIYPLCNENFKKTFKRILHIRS
T1 sequence (P21728 whole entry): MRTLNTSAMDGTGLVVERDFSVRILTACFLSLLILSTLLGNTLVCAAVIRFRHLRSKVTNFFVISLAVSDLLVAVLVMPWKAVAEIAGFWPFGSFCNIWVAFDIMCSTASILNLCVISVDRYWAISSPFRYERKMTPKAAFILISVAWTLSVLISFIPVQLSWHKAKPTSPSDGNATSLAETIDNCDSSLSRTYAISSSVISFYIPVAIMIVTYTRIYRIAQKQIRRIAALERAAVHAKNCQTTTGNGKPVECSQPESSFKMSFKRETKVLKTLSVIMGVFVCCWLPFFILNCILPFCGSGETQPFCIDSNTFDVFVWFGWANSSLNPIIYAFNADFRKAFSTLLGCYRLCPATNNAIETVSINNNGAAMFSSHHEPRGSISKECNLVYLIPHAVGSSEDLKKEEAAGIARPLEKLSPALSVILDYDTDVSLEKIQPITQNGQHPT

For `O=C1C(=Nc2cccc(C(F)(F)F)c2)c2ccccc2N1c1ccccc1` [Example 92, 1-PHENYL-3-[[3-(TRIFLUOROMETHYL)PHENYL]IMINO]-1,3-DIHYDRO-2H-INDOL-2-ONE], which “selectivity ratio hD1 (Ki hD1 / Ki hGAL3)” value [1] is on record?
The value was over 100.

And the “selectivity ratio hα1B (Ki hα1B / Ki hGAL3)” value (human α1B adrenoceptor)?
The value was over 100.

And the “selectivity ratio h5HT2A (Ki h5HT2A / Ki hGAL3)” value (Human 5HT2A receptor)?
Its value is over 100.

What about the “selectivity ratio hH1 (Ki hH1 / Ki hGAL3)” value [2] of the same compound?
The value was over 100.

What about the “selectivity ratio hα2A (Ki hα2A / Ki hGAL3)” value (human α2A adrenoceptor) of the same compound?
The value was over 100.

And the “responses of the uninjured (contralateral) left paw (thermal plantar) vs vehicle” value ([3]; 3, 10, 30 mg/kg i.p., any time point)?
The value was “No significant changes”.

And the “effect on withdrawal latency of the nerve-injured hind paw to the thermal plantar device” value ([3]; 3, 10 and 30 mg/kg i.p., approx. 40 and 100 min PD)?
Its value is “no significant effect”.

What about the “selectivity ratio h5HT6 (Ki h5HT6 / Ki hGAL3)” value (h5HT6) of the same compound?
Its value is over 100.

From US7220775B2, “Compound useful for the treatment of neuropathic pain” (H. Lundbeck A/S, priority 2002, dated 2007)
